Measurements published in patent US20120214822A1 (ASTRAZENECA AB, priority 2007, published 2012).
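Also: 0.5 nM final p38α, reaction started with ATP and run 45 min at 37 °C, phospho-ATF2 read by antibody-based AlphaScreen, background wells quenched with EDTA before ATP.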

Each compound was assayed against human active recombinant p38α-6His tagged (Homo sapiens, UniProt Q16539) (assay: P38 Alpha Enzyme Assay (AlphaScreen, biotinylated-ATF2 substrate)). Details: p38 alpha enzyme inhibition; means of replicate determinations; 4 h pre-incubation at 37° C.; SD of assay 0.2-0.3 log units.
Sequence of human active recombinant p38α-6His tagged (Q16539 whole entry): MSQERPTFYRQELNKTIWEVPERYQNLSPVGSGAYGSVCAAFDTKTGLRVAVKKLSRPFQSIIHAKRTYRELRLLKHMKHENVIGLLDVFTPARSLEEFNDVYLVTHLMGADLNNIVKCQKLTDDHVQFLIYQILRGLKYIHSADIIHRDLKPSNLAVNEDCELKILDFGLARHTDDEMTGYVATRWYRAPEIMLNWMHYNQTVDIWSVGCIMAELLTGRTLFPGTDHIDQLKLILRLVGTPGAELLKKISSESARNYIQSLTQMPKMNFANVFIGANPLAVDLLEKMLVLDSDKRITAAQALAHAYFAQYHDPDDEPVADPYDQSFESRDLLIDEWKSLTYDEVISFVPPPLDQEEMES
Assay type: biochemical
`Cc1ccc(C(=O)NC2CC2)cc1-n1ccnc(NC(C)(C)c2ccccc2OCCN2CCNCC2)c1=O` [Example 199, N-Cyclopropyl-4-methyl-3-[3-[[1-methyl-1-[2-[2-(1-piperazinyl)ethoxy]phenyl]ethyl]amino]-2-oxo-1(2H)-pyrazinyl]-benzamide] showed a pIC50 of 9.1.
`Cc1ccc(C(=O)NC2CC2)cc1-n1ccnc(NC(C)(C)c2ccccc2OCCN2CCCCC2)c1=O` [Example 201, N-Cyclopropyl-4-methyl-3-[3-[[1-methyl-1-[2-[2-(1-piperidinyl)ethoxy]phenyl]ethyl]amino]-2-oxo-1(2H)-pyrazinyl]-benzamide] showed a pIC50 of 9.1.
In the case of `Cc1ccc(C(=O)NC2CC2)cc1-n1ccnc(NC(C)(C)c2ccccc2OCCN2CCN(C)CC2)c1=O` [Example 202, N-Cyclopropyl-4-methyl-3-[3-[[1-methyl-1-[2-[2-(4-methyl-1-piperazinyl)ethoxy]phenyl]ethyl]amino]-2-oxo-1(2H)-pyrazinyl]-benzamide], the pIC50 is reported as 9.2.
Work on `Cc1ccc(C(=O)NC2CC2)cc1-n1ccnc(NC(C)(C)c2ccccc2OCCN2CCOCC2)c1=O` [Example 203, N-Cyclopropyl-4-methyl-3-[3-[[1-methyl-1-[2-[2-(4-morpholinyl)ethoxy]phenyl]ethyl]amino]-2-oxo-1(2H)-pyrazinyl]-benzamide] yielded a pIC50 of 8.9.
`CNCCCCOc1ccccc1C(C)(C)Nc1nccn(-c2cc(C(=O)NC3CC3)ccc2C)c1=O` [Example 204, N-Cyclopropyl-4-methyl-3-[3-[[1-methyl-1-[2-[4-(methylamino)butoxy]phenyl]ethyl]amino]-2-oxo-1(2H)-pyrazinyl]-benzamide] was tested, and the pIC50 was 9.8.
`Cc1ccc(C(=O)NC2CC2)cc1-n1ccnc(NC(C)(C)c2ccccc2OCCCCNCC(F)(F)F)c1=O` [Example 205, N-Cyclopropyl-4-methyl-3-[3-[[1-methyl-1-[2-[4-[(2,2,2-trifluoroethyl)amino]butoxy]phenyl]ethyl]amino]-2-oxo-1(2H)-pyrazinyl]-benzamide] showed a pIC50 of 9.
`Cc1ccc(C(=O)NC2CC2)cc1-n1ccnc(NC(C)(C)c2ccccc2OCCCCN2CCN(C)CC2)c1=O` [Example 206, N-Cyclopropyl-4-methyl-3-[3-[[1-methyl-1-[2-[4-(4-methyl-1-piperazinyl)butoxy]phenyl]ethyl]amino]-2-oxo-1(2H)-pyrazinyl]-benzamide] showed a pIC50 of 9.3.
Work on `Cc1ccc(C(=O)NC2CC2)cc1-n1ccnc(NC(C)(C)c2ccccc2OCCCNCC(F)(F)F)c1=O` [Example 207, N-Cyclopropyl-4-methyl-3-[3-[[1-methyl-1-[2-[3-[(2,2,2-trifluoroethyl)amino]propoxy]phenyl]ethyl]amino]-2-oxo-1(2H)-pyrazinyl]-benzamide] yielded a pIC50 of 8.9.
Compound `Cc1ccc(C(=O)NC2CC2)cc1-n1ccnc(NC(C)(C)c2ccccc2OCCCN2CCN(C)CC2)c1=O` [Example 208, N-Cyclopropyl-4-methyl-3-[3-[[1-methyl-1-[2-[3-(4-methyl-1-piperazinyl)propoxy]phenyl]ethyl]amino]-2-oxo-1(2H)-pyrazinyl]-benzamide] has a pIC50 of 9.1.
`Cc1ccc(C(=O)NC2CC2)cc1-n1ccnc(NC(C)(C)c2ccccc2OC(C)CN2CCN(C)CC2)c1=O` (stereo not shown) [Example 209, N-Cyclopropyl-4-methyl-3-[3-[[1-methyl-1-[2-[1-methyl-2-(4-methyl-1-piperazinyl)ethoxy]phenyl]ethyl]amino]-2-oxo-1(2H)-pyrazinyl]-benzamide] gave a pIC50 of 8.9.
For `COCCNCCOc1ccccc1C(C)(C)Nc1nccn(-c2cc(C(=O)NC3CC3)ccc2C)c1=O` [Example 210, N-Cyclopropyl-3-[3-[[1-[2-[2-[(2-methoxyethyl)amino]ethoxy]phenyl]-1-methylethyl]amino]-2-oxo-1(2H)-pyrazinyl]-4-methyl-benzamide], the pIC50 was 9.5.
Compound `Cc1ccc(C(=O)NC2CC2)cc1-n1ccnc(NC(C)(C)c2ccccc2OCCNCCO)c1=O` [Example 211, N-Cyclopropyl-3-[3-[[1-[2-[2-[(2-hydroxyethyl)amino]ethoxy]phenyl]-1-methylethyl]amino]-2-oxo-1(2H)-pyrazinyl]-4-methyl-benzamide] has a pIC50 of 9.6.
Work on `Cc1ccc(C(=O)NC2CC2)cc1-n1ccnc(NC(C)(C)c2ccccc2OCCNC(C)C)c1=O` [Example 212, N-Cyclopropyl-4-methyl-3-[3-[[1-methyl-1-[2-[2-[(1-methylethyl)amino]ethoxy]phenyl]ethyl]amino]-2-oxo-1(2H)-pyrazinyl]-benzamide] yielded a pIC50 of 9.6.
Work on `Cc1ccc(C(=O)NC2CC2)cc1-n1ccnc(NC(C)(C)c2ccccc2OCCNC[C@H](C)O)c1=O` [Example 213, N-Cyclopropyl-3-[3-[[1-[2-[2-[[(2S)-2-hydroxypropyl]amino]ethoxy]phenyl]-1-methylethyl]amino]-2-oxo-1(2H)-pyrazinyl]-4-methyl-6-benzamide] yielded a pIC50 of 9.9.
`Cc1ccc(C(=O)NC2CC2)cc1-n1ccnc(NC(C)(C)c2ccccc2OCC2CCNCC2)c1=O` [Example 214, N-Cyclopropyl-4-methyl-3-[3-[[1-methyl-1-[2-(4-piperidinylmethoxy)phenyl]ethyl]amino]-2-oxo-1(2H)-pyrazinyl]-benzamide] gave a pIC50 of 9.1.
With `Cc1ccc(C(=O)NC2CC2)cc1-n1ccnc(NC(C)(C)c2ccccc2OC2CNC2)c1=O` [Example 215, N-Cyclopropyl-4-methyl-3-[3-[[1-[2-(3-azetidinyloxy)phenyl]-1-methylethyl]amino]-2-oxo-1(2H)-pyrazinyl]-benzamide] the pIC50 was 9.6.
`Cc1ccc(C(=O)NC2CC2)cc1-n1ccnc(NC(C)(C)c2ccccc2OC2CCNC2)c1=O` (stereo not shown) [Example 216, N-Cyclopropyl-4-methyl-3-[3-[[1-methyl-1-[2-(3-pyrrolidinyloxy)phenyl]ethyl]amino]-2-oxo-1(2H)-pyrazinyl]-benzamide] gave a pIC50 of 9.4.
`Cc1ccc(C(=O)NC2CC2)cc1-n1ccnc(NC(C)(C)c2ccccc2OCCC2CCNCC2)c1=O` [Example 217, N-Cyclopropyl-4-methyl-3-[3-[[1-methyl-1-[2-[2-(4-piperidinyl)ethoxy]phenyl]ethyl]amino]-2-oxo-1(2H)-pyrazinyl]-benzamide] gave a pIC50 of 9.6.
`Cc1ccc(C(=O)NC2CC2)cc1-n1ccnc(NC(C)(C)c2ccccc2OCC2CCCNC2)c1=O` (stereo not shown) [Example 218, N-Cyclopropyl-4-methyl-3-[3-[[1-methyl-1-[2-(3-piperidinylmethoxy)phenyl]ethyl]amino]-2-oxo-1(2H)-pyrazinyl]-benzamide] gave a pIC50 of 9.1.
Compound `Cc1ccc(C(=O)NC2CC2)cc1-n1ccnc(NC(C)(C)c2ccccc2OC2CCNCC2)c1=O` [Example 219, N-Cyclopropyl-4-methyl-3-[3-[[1-methyl-1-[2-(4-piperidinyloxy)phenyl]ethyl]amino]-2-oxo-1(2H)-pyrazinyl]-benzamide] has a pIC50 of 9.3.
Compound `CCNC(=O)c1ccc(C)c(-n2ccnc(NC(C)(C)c3ccccc3OCCNC)c2=O)c1` [Example 220, N-Ethyl-4-methyl-3-[3-[[1-methyl-1-[2-[2-(methylamino)ethoxy]phenyl]ethyl]amino]-2-oxo-1(2H)-pyrazinyl]-benzamide] has a pIC50 of 8.3.
In the case of `CNCCOc1ccccc1C(C)(C)Nc1nccn(-c2cc(C(=O)N3CCC3)ccc2C)c1=O` [Example 221, 1-[4-Methyl-3-[3-[[1-methyl-1-[2-[2-(methylamino)ethoxy]phenyl]ethyl]amino]-2-oxo-1(2H)-pyrazinyl]benzoyl]-azetidine], the pIC50 is reported as 6.7.
In the case of `CCONC(=O)c1ccc(C)c(-n2ccnc(NC(C)(C)c3ccccc3OCCNC)c2=O)c1` [Example 222, N-Ethoxy-4-methyl-3-[3-[[1-methyl-1-[2-[2-(methylamino)ethoxy]phenyl]ethyl]amino]-2-oxo-1(2H)-pyrazinyl]-benzamide], the pIC50 is reported as 9.
With `CNCCOc1ccccc1C(C)(C)Nc1nccn(-c2cc(C(=O)NC(C)C)ccc2C)c1=O` [Example 223, 4-Methyl-N-(1-methylethyl)-3-[3-[[1-methyl-1-[2-[2-(methylamino)ethoxy]phenyl]ethyl]amino]-2-oxo-1(2H)-pyrazinyl]-benzamide] the pIC50 was 8.1.
In the case of `CNCCOc1ccccc1C(C)(C)Nc1nccn(-c2cc(C(=O)NC3CCC3)ccc2C)c1=O` [Example 224, N-Cyclobutyl-4-methyl-3-[3-[[1-methyl-1-[2-[2-(methylamino)ethoxy]phenyl]ethyl]amino]-2-oxo-1(2H)-pyrazinyl]-benzamide], the pIC50 is reported as 8.4.
`CNCCOc1ccccc1C(C)(C)Nc1nccn(-c2cc(C(=O)NCCF)ccc2C)c1=O` [Example 225, N-(2-Fluoroethyl)-4-methyl-3-[3-[[1-methyl-1-[2-[2-(methylamino)ethoxy]phenyl]ethyl]amino]-2-oxo-1(2H)-pyrazinyl]-benzamide] showed a pIC50 of 8.2.
Work on `CNCCOc1ccccc1C(C)(C)Nc1nccn(-c2cc(C(=O)NCC(C)C)ccc2C)c1=O` [Example 226, 4-Methyl-3-[3-[[1-methyl-1-[2-[2-(methylamino)ethoxy]phenyl]ethyl]amino]-2-oxo-1(2H)-pyrazinyl]-N-(2-methylpropyl)-benzamide] yielded a pIC50 of 6.6.
`CNCCOc1ccccc1C(C)(C)Nc1nccn(-c2cc(C(=O)NC3(C)CC3)ccc2C)c1=O` [Example 227, 4-Methyl-N-(1-methylcyclopropyl)-3-[3-[[1-methyl-1-[2-[2-(methylamino)ethoxy]phenyl]ethyl]amino]-2-oxo-1(2H)-pyrazinyl]-benzamide] was tested, and the pIC50 was 8.5.
With `CNCCOc1ccccc1C(C)(C)Nc1nccn(-c2cc(C(=O)NCCO)ccc2C)c1=O` [Example 228, N-(2-Hydroxyethyl)-4-methyl-3-[3-[[1-methyl-1-[2-[2-(methylamino)ethoxy]phenyl]ethyl]amino]-2-oxo-1(2H)-pyrazinyl]-benzamide] the pIC50 was 6.8.
Compound `CNCCOc1ccccc1C(C)(C)Nc1nccn(-c2cc(C(N)=O)ccc2C)c1=O` [Example 229, 4-Methyl-3-[3-[[1-methyl-1-[2-[2-(methylamino)ethoxy]phenyl]ethyl]amino]-2-oxo-1(2H)-pyrazinyl]benzamide] has a pIC50 of 8.6.
In the case of `Cc1ccc(C(=O)NC2CC2)cc1-n1ccnc(NC2(c3ccccc3OCCNC[C@H](C)O)CC2)c1=O` [Example 230, N-Cyclopropyl-3-[3-[[1-[2-[2-[[(2S)-2-hydroxypropyl]amino]ethoxy]phenyl]cyclopropyl]amino]-2-oxo-1(2H)-pyrazinyl]-4-methyl-benzamide], the pIC50 is reported as 10.
